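These data come from cells grown in 96-well plates and exposed to compound for 48 hours at five concentrations. TGI: concentration producing complete growth inhibition.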
Assays:
Assay in all cases: growth of human tumour cells (NCI), 48 h
786-0 renal = test system: 786-0 renal
A498 renal = test system: A498 renal
A549 NSCLC = test system: A549 NSCLC
ACHN renal = test system: ACHN renal
BT-549 breast = test system: BT-549 breast
CAKI-1 renal = test system: CAKI-1 renal
CCRF-CEM leukemia = test system: CCRF-CEM leukemia
COLO 205 colon = test system: COLO 205 colon
DU-145 prostate = test system: DU-145 prostate
EKVX NSCLC = test system: EKVX NSCLC
HCC-2998 colon = test system: HCC-2998 colon
HCT-116 colon = test system: HCT-116 colon
HCT-15 colon = test system: HCT-15 colon
HL-60(TB) leukemia = test system: HL-60(TB) leukemia
HOP-62 NSCLC = test system: HOP-62 NSCLC
HOP-92 NSCLC = test system: HOP-92 NSCLC
HS 578T breast = test system: HS 578T breast
HT29 colon = test system: HT29 colon
IGROV1 ovarian = test system: IGROV1 ovarian
K-562 leukemia = test system: K-562 leukemia
KM12 colon = test system: KM12 colon
LOX IMVI melanoma = test system: LOX IMVI melanoma
M14 melanoma = test system: M14 melanoma
MALME-3M melanoma = test system: MALME-3M melanoma
MCF7 breast = test system: MCF7 breast
MDA-MB-231 breast = test system: MDA-MB-231 breast
MDA-MB-435 = test system: MDA-MB-435
MDA-N = test system: MDA-N
MOLT-4 leukemia = test system: MOLT-4 leukemia
NCI-H226 lung = test system: NCI-H226 lung
NCI-H460 lung = test system: NCI-H460 lung
NCI-H522 lung = test system: NCI-H522 lung
NCI/ADR-RES ovarian = test system: NCI/ADR-RES ovarian
OVCAR-3 ovarian = test system: OVCAR-3 ovarian
OVCAR-4 ovarian = test system: OVCAR-4 ovarian
OVCAR-5 ovarian = test system: OVCAR-5 ovarian
OVCAR-8 ovarian = test system: OVCAR-8 ovarian
PC-3 prostate = test system: PC-3 prostate
RPMI-8226 leukemia = test system: RPMI-8226 leukemia
RXF 393 renal = test system: RXF 393 renal
SF-268 CNS = test system: SF-268 CNS
SF-295 CNS = test system: SF-295 CNS
SF-539 CNS = test system: SF-539 CNS
SK-MEL-2 melanoma = test system: SK-MEL-2 melanoma
SK-MEL-28 melanoma = test system: SK-MEL-28 melanoma
SK-MEL-5 melanoma = test system: SK-MEL-5 melanoma
SK-OV-3 ovarian = test system: SK-OV-3 ovarian
SN12C renal = test system: SN12C renal
SNB-19 CNS = test system: SNB-19 CNS
SNB-75 CNS = test system: SNB-75 CNS
SR leukemia = test system: SR leukemia
SW-620 colon = test system: SW-620 colon
T-47D breast = test system: T-47D breast
TK-10 renal = test system: TK-10 renal
U251 CNS = test system: U251 CNS
UACC-257 melanoma = test system: UACC-257 melanoma
UACC-62 melanoma = test system: UACC-62 melanoma
UO-31 renal = test system: UO-31 renal
DMS 114 small cell lung = test system: DMS 114 small cell lung
DMS 273 small cell lung = test system: DMS 273 small cell lung
KM20L2 colon = test system: KM20L2 colon
LXFL 529 NSCLC = test system: LXFL 529 NSCLC
M19-MEL melanoma = test system: M19-MEL melanoma
NCI-H23 lung = test system: NCI-H23 lung
SNB-78 CNS = test system: SNB-78 CNS

Measured: TGI

COC(=O)C1C(=O)C(C(=O)OC)C2CCC1N2C (stereo not given)
63.5 µM: SK-MEL-2 melanoma
27.3 µM: BT-549 breast
> 94.9 µM: NCI-H226 lung
51.9 µM: MALME-3M melanoma
73.8 µM: MDA-N
> 83.1 µM: LOX IMVI melanoma
> 77.3 µM: HOP-92 NSCLC
> 83.2 µM: HCT-116 colon
> 72.1 µM: OVCAR-3 ovarian
> 57.9 µM: MOLT-4 leukemia
> 65.8 µM: HL-60(TB) leukemia
> 79.3 µM: MDA-MB-435
> 78.1 µM: CCRF-CEM leukemia
not listed: DMS 114 small cell lung | DMS 273 small cell lung | KM20L2 colon | LXFL 529 NSCLC | M19-MEL melanoma | NCI-H23 lung | SNB-78 CNS
> 100 µM: all other assays above

O=c1[nH]c(-c2ccccc2)nc2cc([N+](=O)[O-])c(/C(Cl)=C/c3ccccc3)cc12
81.7 µM: NCI-H522 lung
79.9 µM: COLO 205 colon
88.7 µM: RPMI-8226 leukemia
53.5 µM: SF-295 CNS
42.6 µM: UACC-62 melanoma
45.4 µM: OVCAR-8 ovarian
48.3 µM: UACC-257 melanoma
49.5 µM: OVCAR-4 ovarian
53.1 µM: SNB-75 CNS
35.6 µM: HOP-92 NSCLC
72.2 µM: SK-OV-3 ovarian
74 µM: SK-MEL-5 melanoma
78.4 µM: LXFL 529 NSCLC
76.6 µM: TK-10 renal
71.8 µM: SK-MEL-2 melanoma
72.7 µM: RXF 393 renal
not listed: A498 renal | BT-549 breast | CCRF-CEM leukemia | DU-145 prostate | HL-60(TB) leukemia | HOP-62 NSCLC | HS 578T breast | HT29 colon | LOX IMVI melanoma | M14 melanoma | MCF7 breast | MDA-MB-231 breast | MDA-MB-435 | MDA-N | NCI-H460 lung | NCI/ADR-RES ovarian | PC-3 prostate | T-47D breast
> 100 µM: all other assays above

Source: PubChem BioAssay (NCI)
